Here are results for 28 compounds from US11739100B2, “2,3-dihydro-1h-imidazo{1,2-a}pyrimidin-5-one and this 1,2,3,4-tetrahydropyrimido{1,2-a}pyrimidin-6-one derivatives comprising a substituted morpholine, preparation thereof and pharmaceutical use thereof” (SANOFI, priority 2012, dated 2023).

The target in this assay is T1, recombinant Vps34 (Homo sapiens, UniProt Q8NEB9).
T1 construct: purchased Invitrogen PV5126
The assay is described as follows: Phosphorylation of phosphatidylinositol (PI) by Vps34 in vitro, ADP detected by TR-FRET (HTRF Transcreener ADP). Format: biochemical. To be noted: 10 μM ATP, 55 μg/ml PI, approximately 3 nM Vps34, 1 hour at ambient temperature; absolute IC50, mean of two independent experiments; read-out: IC50 activity range. (Time-resolved FRET reads energy transfer from a long-lived donor to a nearby acceptor.)

T1 sequence (Q8NEB9 whole entry): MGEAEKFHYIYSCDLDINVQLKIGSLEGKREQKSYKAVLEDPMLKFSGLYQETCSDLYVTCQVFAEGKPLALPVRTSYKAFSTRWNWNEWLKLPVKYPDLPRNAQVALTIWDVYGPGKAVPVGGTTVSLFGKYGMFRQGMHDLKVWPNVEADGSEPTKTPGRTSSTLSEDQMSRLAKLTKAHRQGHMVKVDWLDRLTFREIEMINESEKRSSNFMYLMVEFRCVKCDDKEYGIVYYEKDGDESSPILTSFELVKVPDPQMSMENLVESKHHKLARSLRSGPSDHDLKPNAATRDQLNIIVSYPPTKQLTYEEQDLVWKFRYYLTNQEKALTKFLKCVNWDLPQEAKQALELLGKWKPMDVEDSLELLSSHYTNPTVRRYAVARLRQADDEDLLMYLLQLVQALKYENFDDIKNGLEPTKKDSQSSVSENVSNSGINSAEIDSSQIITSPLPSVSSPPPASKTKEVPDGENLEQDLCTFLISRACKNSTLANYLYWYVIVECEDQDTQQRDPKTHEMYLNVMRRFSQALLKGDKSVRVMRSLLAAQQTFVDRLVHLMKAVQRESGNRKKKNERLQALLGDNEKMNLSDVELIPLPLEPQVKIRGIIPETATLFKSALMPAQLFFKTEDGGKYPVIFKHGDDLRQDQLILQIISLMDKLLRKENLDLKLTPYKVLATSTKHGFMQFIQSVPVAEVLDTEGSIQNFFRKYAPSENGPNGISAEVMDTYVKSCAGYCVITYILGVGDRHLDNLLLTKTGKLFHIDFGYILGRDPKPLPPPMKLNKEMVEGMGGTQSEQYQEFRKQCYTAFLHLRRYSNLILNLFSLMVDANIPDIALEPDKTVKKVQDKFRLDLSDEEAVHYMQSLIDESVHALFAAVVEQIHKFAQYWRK

For `C[C@@H]1COCCN1c1cc(=O)n2c(n1)N(Cc1cocn1)[C@H](C(F)(F)F)CC2` [Example 103, (S)-2-((R)-3-Methyl-morpholin-4-yl)-9-oxazol-4-ylmethyl-8-trifluoromethyl-6,7,8,9-tetrahydro-pyrimido[1,2-a]-pyrimidin-4-one], the IC50 – broadly, the concentration that inhibits the measured activity by half – was < 10 nM.

In the case of `Cc1ccc(S(=O)(=O)N2c3nc(N4CCOC[C@H]4C)cc(=O)n3CC[C@H]2C(F)(F)F)cc1` [Example 104, (S)-2-((R)-3-Methyl-morpholin-4-yl)-9-(toluene-4-sulfonyl)-8-trifluoromethyl-6,7,8,9-tetrahydro-pyrimido[1,2-a]-pyrimidin-4-one], the IC50 was in the range of 10 to 100 nM.

Turning to `C[C@@H]1COCCN1c1cc(=O)n2c(n1)N(Cc1ccno1)CC[C@@H]2C(F)(F)F` [Example 105, (R)-9-Isoxazol-5-yl-methyl-2-((R)-3-methylmorpholin-4-yl)-6-trifluoromethyl-6,7,8,9-tetrahydro-pyrimido[1,2-a]-pyrimidin-4-one], the IC50 fell in the range of 10 to 100 nM.

Turning to `C[C@@H]1COCCN1c1cc(=O)n2c(n1)N(c1ccc(C3CC3)nc1)CC[C@@H]2C(F)(F)F` [Example 107, (R)-9-(6-Cyclopropyl-pyridin-3-yl)-2-((R)-3-methylmorpholin-4-yl)-6-trifluoromethyl-6,7,8,9-tetrahydro-pyrimido[1,2-a]-pyrimidin-4-one], the half-inhibitory concentration (IC50) is < 10 nM.

`C[C@@H]1COCCN1c1cc(=O)n2c(n1)N(c1ccnc(Cl)c1)CC[C@@H]2C(F)(F)F` [Example 108, (R)-9-(2-Chloro-pyridin-4-yl)-2-((R)-3-methylmorpholin-4-yl)-6-trifluoromethyl-6,7,8,9-tetrahydro-pyrimido[1,2-a]-pyrimidin-4-one]: the IC50 is < 10 nM.

For `COc1cc(N2CC[C@H](C(F)(F)F)n3c2nc(N2CCOC[C@H]2C)cc3=O)ccn1` [Example 109, (R)-9-(2-Methoxy-pyridin-4-yl)-2-((R)-3-methylmorpholin-4-yl)-6-trifluoromethyl-6,7,8,9-tetrahydro-pyrimido[1,2-a]-pyrimidin-4-one], the 50% inhibitory concentration (IC50) was < 10 nM.

In the case of `C[C@@H]1COCCN1c1cc(=O)n2c(n1)N(Cc1cocn1)CC[C@@H]2C(F)(F)F` [Example 110, (R)-2-((R)-3-Methyl-morpholin-4-yl)-9-oxazol-4-ylmethyl-6-trifluoromethyl-6,7,8,9-tetrahydro-pyrimido[1,2-a]-pyrimidin-4-one], the IC50 is 10 to 100 nM.

In the case of `C[C@@H]1COCCN1c1nc2n(c(=O)c1F)CC[C@@H](C(F)(F)F)N2Cc1cnco1` [Example 111, (S)-3-Fluoro-2-((R)-3-methylmorpholin-4-yl)-9-oxazol-5-ylmethyl-8-trifluoromethyl-6,7,8,9-tetrahydro-pyrimido[1,2-a]-pyrimidin-4-one], the concentration for half-maximal inhibition (IC50) was < 10 nM.

As for `C[C@@H]1COCCN1c1cc(=O)n2c(n1)N(Cc1ccnc(Cl)c1)CC[C@@H]2C(F)(F)F` [Example 112, (R)-9-(2-Chloro-pyridin-4-ylmethyl)-2-((R)-3-methyl-morpholin-4-yl)-6-trifluoromethyl-6,7,8,9-tetrahydro-pyrimido[1,2-a]-pyrimidin-4-one], the concentration for half-maximal inhibition (IC50) was < 10 nM.

For the compound `C[C@@H]1COCCN1c1cc(=O)n2c(n1)N(CC(C)(C)O)CC[C@@H]2C(F)(F)F` [Example 113, (R)-9-(2-Hydroxy-2-methylpropyl)-2-((R)-3-methylmorpholin-4-yl)-6-trifluoromethyl-6,7,8,9-tetrahydro-pyrimido[1,2-a]-pyrimidin-4-one], the half-maximal inhibitory concentration (IC50) was 10 to 100 nM.

With `CC(C)Oc1cc(N2CC[C@H](C(F)(F)F)n3c2nc(N2CCOC[C@H]2C)cc3=O)ccn1` [Example 114, (R)-9-(2-Isopropoxy-pyridin-4-yl)-2-((R)-3-methylmorpholin-4-yl)-6-trifluoromethyl-6,7,8,9-tetrahydro-pyrimido[1,2-a]-pyrimidin-4-one], the IC50 was < 10 nM.

Consider `C[C@@H]1COCCN1c1cc(=O)n2c(n1)N(Cc1ccc(Cl)nc1)CC[C@@H]2C(F)(F)F` [Example 115, (R)-9-(6-Chloro-pyridin-3-ylmethyl)-2-((R)-3-methyl-morpholin-4-yl)-6-trifluoromethyl-6,7,8,9-tetrahydro-pyrimido[1,2-a]-pyrimidin-4-one], for which the half-inhibitory concentration (IC50) is < 10 nM.

As for `CC(C)Oc1ccc(N2CC[C@H](C(F)(F)F)n3c2nc(N2CCOC[C@H]2C)cc3=O)cn1` [Example 116, (R)-9-(6-Isopropoxy-pyridin-3-yl)-2-((R)-3-methylmorpholin-4-yl)-6-trifluoromethyl-6,7,8,9-tetrahydro-pyrimido[1,2-a]-pyrimidin-4-one], the 50% inhibitory concentration (IC50) was < 10 nM.

In the case of `C[C@@H]1COCCN1c1cc(=O)n2c(n1)N(Cc1cnco1)CC[C@@H]2C(F)(F)F` [Example 117, (R)-2-((R)-3-Methyl-morpholin-4-yl)-9-oxazol-5-ylmethyl-6-trifluoromethyl-6,7,8,9-tetrahydro-pyrimido[1,2-a]-pyrimidin-4-one], the IC50 fell in the range of 10 to 100 nM.

Turning to `C[C@@H]1COCCN1c1cc(=O)n2c(n1)N(CC(=O)C1CC1)CC[C@@H]2C(F)(F)F` [Example 118, (R)-9-(2-Cyclopropyl-2-oxoethyl)-2-((R)-3-methylmorpholin-4-yl)-6-trifluoromethyl-6,7,8,9-tetrahydro-pyrimido[1,2-a]-pyrimidin-4-one], the IC50 was < 10 nM.

`COc1cc(N2CC[C@H](C(F)(F)F)n3c2nc(N2CCOC[C@H]2C)c(F)c3=O)ccn1` [Example 119, (R)-3-Fluoro-9-(2-methoxypyridin-4-yl)-2-((R)-3-methyl-morpholin-4-yl)-6-trifluoromethyl-6,7,8,9-tetrahydro-pyrimido[1,2-a]-pyrimidin-4-one]: the IC50 is < 10 nM.

For the compound `C[C@@H]1COCCN1c1nc2n(c(=O)c1F)[C@@H](C(F)(F)F)CCN2CC(=O)C1CC1` [Example 120, (R)-9-(2-Cyclopropyl-2-oxoethyl)-3-fluoro-2-((R)-3-methyl-morpholin-4-yl)-6-trifluoromethyl-6,7,8,9-tetrahydro-pyrimido[1,2-a]-pyrimidin-4-one], the half-maximal inhibitory concentration (IC50) is < 10 nM.

`C[C@@H]1COCCN1c1nc2n(c(=O)c1F)[C@@H](C(F)(F)F)CCN2c1ccc(C(F)F)nc1` [Example 121, (R)-9-(6-Difluoromethylpyridin-3-yl)-3-fluoro-2-((R)-3-methylmorpholin-4-yl)-6-trifluoromethyl-6,7,8,9-tetrahydro-pyrimido[1,2-a]-pyrimidin-4-one]: the IC50 is < 10 nM.

In the case of `C[C@@H]1COCCN1c1nc2n(c(=O)c1F)[C@@H](C(F)(F)F)CCN2c1ccnc(Cl)c1` [Example 122, (R)-9-(2-Chloro-pyridin-4-yl)-3-fluoro-2-((R)-3-methyl-morpholin-4-yl)-6-trifluoromethyl-6,7,8,9-tetrahydro-pyrimido[1,2-a]-pyrimidin-4-one], the IC50 is < 10 nM.

Regarding `Cc1nnc(CN2c3nc(N4CCOC[C@H]4C)cc(=O)n3CC[C@H]2C(F)(F)F)s1` [Example 123, (S)-2-((R)-3-Methyl-morpholin-4-yl)-9-(5-methyl-[1,3,4]thiadiazol-2-yl-methyl)-8-trifluoromethyl-6,7,8,9-tetrahydro-pyrimido[1,2-a]-pyrimidin-4-one], the IC50 fell in the range of 10 to 100 nM.

Turning to `C[C@@H]1COCCN1c1cc(=O)n2c(n1)N(c1ccc(OC(F)F)nc1)[C@H](C(F)(F)F)CC2` [Example 124, (S)-9-(6-Difluoromethoxy-pyridin-3-yl)-2-((R)-3-methylmorpholin-4-yl)-8-trifluoromethyl-6,7,8,9-tetrahydro-pyrimido[1,2-a]-pyrimidin-4-one], the concentration for half-maximal inhibition (IC50) is < 10 nM.

Turning to `Cc1nnsc1CN1c2nc(N3CCOC[C@H]3C)cc(=O)n2CC[C@H]1C(F)(F)F` [Example 125, (S)-2-((R)-3-Methyl-morpholin-4-yl)-9-(4-methyl-[1,2,3]thiadiazol-5-yl-methyl)-8-trifluoromethyl-6,7,8,9-tetrahydro-pyrimido[1,2-a]-pyrimidin-4-one], the IC50 fell in the range of 10 to 100 nM.

As for `C[C@@H]1COCCN1c1nc2n(c(=O)c1F)[C@@H](C(F)(F)F)CCN2CC(=O)c1cccnc1` [Example 126, (R)-3-Fluoro-2-((R)-3-methylmorpholin-4-yl)-9-(2-oxo-2-pyridin-3-ylethyl)-6-trifluoromethyl-6,7,8,9-tetrahydro-pyrimido[1,2-a]-pyrimidin-4-one], the IC50 is < 10 nM.

For the compound `C[C@@H]1COCCN1c1nc2n(c(=O)c1F)[C@@H](C(F)(F)F)CCN2c1ccc(OC(F)F)nc1` [Example 127, (R)-9-(6-Difluoromethoxy-pyridin-3-yl)-3-fluoro-2-((R)-3-methyl-morpholin-4-yl)-6-trifluoromethyl-6,7,8,9-tetrahydro-pyrimido[1,2-a]-pyrimidin-4-one], the IC50 is < 10 nM.

Take `CC(C)C(=O)CN1CC[C@H](C(F)(F)F)n2c1nc(N1CCOC[C@H]1C)c(F)c2=O` [Example 128, (R)-3-Fluoro-2-((R)-3-methylmorpholin-4-yl)-9-(3-methyl-2-oxo-butyl)-6-trifluoromethyl-6,7,8,9-tetrahydro-pyrimido[1,2-a]-pyrimidin-4-one]: the IC50 is < 10 nM.

On to `C[C@@H]1COCCN1c1nc2n(c(=O)c1F)[C@@H](C(F)(F)F)CCN2Cc1ncco1` [Example 129, (R)-3-Fluoro-2-((R)-3-methylmorpholin-4-yl)-9-oxazol-2-ylmethyl-6-trifluoromethyl-6,7,8,9-tetrahydro-pyrimido[1,2-a]-pyrimidin-4-one], for which the IC50 was < 10 nM.

With `CC(C)C(=O)CN1CC[C@H](C(F)(F)F)n2c1nc(N1CCOC[C@H]1C)cc2=O` [Example 130, (R)-2-((R)-3-Methyl-morpholin-4-yl)-9-(3-methyl-2-oxobutyl)-6-trifluoromethyl-6,7,8,9-tetrahydro-pyrimido[1,2-a]-pyrimidin-4-one], the IC50 is < 10 nM.

As to `C[C@@H]1COCCN1c1cc(=O)n2c(n1)N(CC(=O)C1CCOCC1)CC[C@@H]2C(F)(F)F` [Example 131, (R)-2-((R)-3-Methyl-morpholin-4-yl)-9-[2-oxo-2-(tetrahydro-pyran-4-yl)ethyl]-6-trifluoromethyl-6,7,8,9-tetrahydro-pyrimido[1,2-a]-pyrimidin-4-one], the IC50 was < 10 nM.
